Assay results as given in ChEMBL document CHEMBL5537118, “Synthesis of cinnamoyl tethered indoline derivatives with anti-inflammatory and antioxidant activities” (Eur J Med Chem, 2024).
Calls of active or inactive are those of the source. The rule behind the calls is not given here.

How the values were obtained:
[1] = Cytotoxicity against mouse RAW264.7 cells assessed as cell viability at 2 to 10 uM measured after 24 hrs; type: toxicity, cell-based; conditions: dose 2-10 µM, read-out: Activity
RAW264.7 [2] = experiment: Antiinflammatory activity in LPS-induced mouse RAW264.7 cells assessed as inhibition of NO production at 2 to 10 uM pretreated for 1 hr followed by LPS addition and measured after 24 hrs by griess reagent based assay; type: functional, cell-based; conditions: dose 2-10 µM, time 25.0 hrs
RAW264.7 [3] = experiment: Antiinflammatory activity in LPS-induced mouse RAW264.7 cells assessed as inhibition of NO production pretreated for 1 hr followed by LPS addition and measured after 24 hrs by griess reagent based assay; type: functional, cell-based
RAW264.7 [4] = experiment: Antioxidant activity in H2O2-stimulated mouse RAW264.7 cells assessed as protection against cell damage at 2 to 5 uM pretreated for 30 mins followed by H2O2 stimulation and measured after 4 hrs by MTT assay; type: functional, cell-based; conditions: dose 2-5 µM, time 4.5 hrs
Mus musculus [5] = experiment: Antiinflammatory activity in carrageenan-induced Kunming mouse model of paw edema assessed as edema inhibition at 30 mg/kg, IG pretreated for 1 hr followed by carrageenan administration and measured after 1 hr relative to control; type: functional; conditions: po, time 2 hrs
Mus musculus [6] = experiment: Antiinflammatory activity in carrageenan-induced Kunming mouse model of paw edema assessed as paw volume at 30 mg/kg, ip pretreated for 1 hr followed by carrageenan administration and measured after 5 hrs by digital plethysmometer (reference value: 0.362 +/- 0.016 mL); type: functional; conditions: time 6 hrs
Mus musculus [7] = experiment: Antiinflammatory activity in carrageenan-induced Kunming mouse model of paw edema assessed as paw volume at 30 mg/kg, ip pretreated for 1 hr followed by carrageenan administration and measured after 3 hrs by digital plethysmometer (reference value: 0.377 +/- 0.018 mL); type: functional; conditions: time 4 hrs
Mus musculus [8] = experiment: Antiinflammatory activity in carrageenan-induced Kunming mouse model of paw edema assessed as edema inhibition at 30 mg/kg, ip pretreated for 1 hr followed by carrageenan administration and measured after 5 hrs relative to control; type: functional; conditions: time 6 hrs
Mus musculus [9] = experiment: Antiinflammatory activity in carrageenan-induced Kunming mouse model of paw edema assessed as paw volume at 30 mg/kg, IG pretreated for 1 hr followed by carrageenan administration and measured immediately by digital plethysmometer (reference value: 0.144 +/- 0.026 mL); type: functional
Mus musculus [10] = experiment: Antiinflammatory activity in carrageenan-induced Kunming mouse model of paw edema assessed as paw volume at 30 mg/kg, IG pretreated for 1 hr followed by carrageenan administration and measured after 5 hrs by digital plethysmometer (reference value: 0.353 +/- 0.024 mL); type: functional; conditions: time 6 hrs
Mus musculus [11] = experiment: Antiinflammatory activity in carrageenan-induced Kunming mouse model of paw edema assessed as edema inhibition at 30 mg/kg, IG pretreated for 1 hr followed by carrageenan administration and measured after 3 hrs relative to control; type: functional; conditions: po, time 4 hrs
Mus musculus [12] = experiment: Antiinflammatory activity in carrageenan-induced Kunming mouse model of paw edema assessed as edema inhibition at 30 mg/kg, ip pretreated for 1 hr followed by carrageenan administration and measured after 3 hrs relative to control; type: functional; conditions: time 4 hrs
Mus musculus [13] = experiment: Antiinflammatory activity in carrageenan-induced Kunming mouse model of paw edema assessed as edema inhibition at 30 mg/kg, IG pretreated for 1 hr followed by carrageenan administration and measured after 5 hrs relative to control; type: functional; conditions: po, time 6 hrs
Mus musculus [14] = experiment: Antiinflammatory activity in carrageenan-induced Kunming mouse model of paw edema assessed as paw volume at 30 mg/kg, IG pretreated for 1 hr followed by carrageenan administration and measured after 3 hrs by digital plethysmometer (reference value: 0.365 +/- 0.044 mL); type: functional; conditions: time 4 hrs
Mus musculus [15] = experiment: Antiinflammatory activity in carrageenan-induced Kunming mouse model of paw edema assessed as paw volume at 30 mg/kg, IG pretreated for 1 hr followed by carrageenan administration and measured after 1 hr by digital plethysmometer (reference value: 0.407 +/- 0.023 mL); type: functional; conditions: time 2 hrs
Mus musculus [16] = experiment: Antiinflammatory activity in carrageenan-induced Kunming mouse model of paw edema assessed as paw volume at 30 mg/kg, ip pretreated for 1 hr followed by carrageenan administration and measured after 1 hr by digital plethysmometer (reference value: 0.395 +/- 0.017 mL); type: functional; conditions: time 2 hrs
Mus musculus [17] = experiment: Antiinflammatory activity in carrageenan-induced Kunming mouse model of paw edema assessed as paw volume at 30 mg/kg, ip pretreated for 1 hr followed by carrageenan administration and measured immediately by digital plethysmometer (reference value: 0.116 +/- 0.042 mL); type: functional
Mus musculus [18] = experiment: Antiinflammatory activity in carrageenan-induced Kunming mouse model of paw edema assessed as edema inhibition at 30 mg/kg, ip pretreated for 1 hr followed by carrageenan administration and measured after 1 hr relative to control; type: functional; conditions: time 2 hrs

SMILES	viability at 24 h, 10 µM [1]	Activity (RAW264.7 [2])	Activity (RAW264.7 [4])	other results
O=C(/C=C/c1cccc(O)c1)NCCCN1CCc2ccccc21	> 85%	inactive	–	–
COc1cc(/C=C/C(=O)NCCCN2CCc3ccccc32)cc(OC)c1OC	> 85%	Active	inactive	IC50 (RAW264.7 [3]): 3.9 µM
O=C(/C=C/c1ccc(O)c(Cl)c1)NCCCN1CCc2ccccc21	> 85%	Active	Active	–
COc1ccc2c(c1)CCN2CCCNC(=O)/C=C/c1cc(OC)c(OC)c(OC)c1	> 85%	Active	inactive	IC50 (RAW264.7 [3]): 4.43 µM
O=C(/C=C/c1ccc(O)c(Cl)c1)NCCCN1CCc2cc(Cl)ccc21	> 85%	Active	Active	IC50 (RAW264.7 [3]): 3.65 µM
COc1ccc2c(c1)CCN2CCCNC(=O)/C=C/c1cc(C(C)(C)C)c(O)c(C(C)(C)C)c1	> 85%	–	–	–
O=C(/C=C/c1ccc(O)cc1)NCCCN1CCc2ccccc21	> 85%	Active	Active	–
CC(C)(C)c1cc(/C=C/C(=O)NCCCN2CCc3cc(Cl)ccc32)cc(C(C)(C)C)c1O	> 85%	–	–	–
COc1cc(/C=C/C(=O)NCCCN2CCc3cc(Cl)ccc32)cc(OC)c1O	> 85%	–	–	–
CC(=O)Oc1ccc(/C=C/C(=O)NCCCN2CCc3cc(Cl)ccc32)cc1OC(C)=O	–	–	–	inhibition in vivo at 30 mg/kg (Mus musculus [5]): 29.6%; Activity (Mus musculus [6]): 0.209 mL; Activity (Mus musculus [7]): 0.24 mL; inhibition in vivo at 30 mg/kg (Mus musculus [8]): 64%; Activity (Mus musculus [9]): 0.136 mL; Activity (Mus musculus [10]): 0.21 mL; inhibition in vivo at 30 mg/kg (Mus musculus [11]): 43.9%; inhibition in vivo at 30 mg/kg (Mus musculus [12]): 56.1%; inhibition in vivo at 30 mg/kg (Mus musculus [13]): 65.9%; Activity (Mus musculus [14]): 0.258 mL; Activity (Mus musculus [15]): 0.325 mL; Activity (Mus musculus [16]): 0.329 mL; Activity (Mus musculus [17]): 0.142 mL; inhibition in vivo at 30 mg/kg (Mus musculus [18]): 24.3%
O=C(/C=C/c1ccc(O)c(O)c1)NCCCN1CCc2ccccc21	> 85%	Active	Active	IC50 (RAW264.7 [3]): 1.9 µM
O=C(/C=C/c1ccccc1)NCCCN1CCc2ccccc21	> 85%	–	–	–
O=C(/C=C/c1ccc(O)c([N+](=O)[O-])c1)NCCCN1CCc2ccccc21	> 85%	–	–	–
COc1cc(/C=C/C(=O)NCCCN2CCc3cc(Cl)ccc32)cc(OC)c1OC	> 85%	Active	inactive	IC50 (RAW264.7 [3]): 3.54 µM
O=C(/C=C/c1ccc(O)c([N+](=O)[O-])c1)NCCCN1CCc2cc(Cl)ccc21	> 85%	–	–	–
COc1ccc2c(c1)CCN2CCCNC(=O)/C=C/c1ccc(O)c(O)c1	> 85%	Active	Active	IC50 (RAW264.7 [3]): 2.07 µM

SMILES	viability at 24 h, 10 µM [1]	Activity (RAW264.7 [2])	Activity (RAW264.7 [4])	other results
COc1ccc2c(c1)CCN2CCCNC(=O)/C=C/c1ccccc1	> 85%	–	–	–
O=C(/C=C/c1ccc(O)c(O)c1)OCCc1ccccc1 [CAFFEIC ACID PHENETHYL ESTER]	–	–	Active	inhibition in vivo at 30 mg/kg (Mus musculus [5]): 23.5%; Activity (Mus musculus [6]): 0.196 mL; Activity (Mus musculus [7]): 0.243 mL; inhibition in vivo at 30 mg/kg (Mus musculus [8]): 69.5%; Activity (Mus musculus [9]): 0.125 mL; Activity (Mus musculus [10]): 0.257 mL; inhibition in vivo at 30 mg/kg (Mus musculus [11]): 29.1%; inhibition in vivo at 30 mg/kg (Mus musculus [12]): 54.9%; IC50 (RAW264.7 [3]): 0.39 µM; inhibition in vivo at 30 mg/kg (Mus musculus [13]): 44.2%; Activity (Mus musculus [14]): 0.294 mL; Activity (Mus musculus [15]): 0.342 mL; Activity (Mus musculus [16]): 0.29 mL; Activity (Mus musculus [17]): 0.128 mL; inhibition in vivo at 30 mg/kg (Mus musculus [18]): 38.6%
COc1ccc2c(c1)CCN2CCCNC(=O)/C=C/c1ccc(O)c(Cl)c1	> 85%	Active	Active	–
COc1ccc2c(c1)CCN2CCCNC(=O)/C=C/c1cccc(O)c1	> 85%	inactive	–	–
COc1ccc2c(c1)CCN2CCCNC(=O)/C=C/c1ccc(O)c(OC)c1	> 85%	–	–	–
O=C(/C=C/c1ccc(O)cc1)NCCCN1CCc2cc(Cl)ccc21	> 85%	Active	Active	IC50 (RAW264.7 [3]): 4.07 µM
COc1ccc2c(c1)CCN2CCCNC(=O)/C=C/c1cc(OC)c(O)c(OC)c1	> 85%	–	–	–
CC(C)(C)c1cc(/C=C/C(=O)NCCCN2CCc3ccccc32)cc(C(C)(C)C)c1O	> 85%	–	–	–
COc1ccc2c(c1)CCN2CCCNC(=O)/C=C/c1ccc(O)cc1	> 85%	Active	Active	–
COc1cc(/C=C/C(=O)NCCCN2CCc3ccccc32)ccc1O	> 85%	–	–	–
COc1ccc2c(c1)CCN2CCCNC(=O)/C=C/c1ccc(O)c([N+](=O)[O-])c1	> 85%	–	–	–
COc1cc(/C=C/C(=O)NCCCN2CCc3ccccc32)cc(OC)c1O	> 85%	–	–	–
O=C(/C=C/c1ccccc1)NCCCN1CCc2cc(Cl)ccc21	> 85%	–	–	–
COc1cc(/C=C/C(=O)NCCCN2CCc3cc(Cl)ccc32)ccc1O	> 85%	–	–	IC50 (RAW264.7 [3]): 5 µM
O=C(/C=C/c1cccc(O)c1)NCCCN1CCc2cc(Cl)ccc21	> 85%	inactive	–	–
